In US20080220056A1, “Treatment for liver disease” (UNIVERSITY OF SOUTHAMPTON, priority 2002, published 2008):

Assays:
[1] = tested on: rat hepatic stellate cells; experiment: Hepatic stellate cell apoptosis by acridine orange staining and counting (cycloheximide or serum deprivation), rat cells; format: cell-based
Experimental: Human hepatic stellate cells were extracted from the margins of normal human liver resected for colonic metastatic disease as previously described (Iredale et al., Clin. Sci., (1995) 89: 75-81). Rat hepatic stellate cells were extracted from normal rat liver by Pronase and collagenase digestion and purified by centrifugal elutriation as described (Arthur et al., J. Clin. Invest., (1989) 84:1076-1085). Extracted hepatic stellate cells were cultured on plastic until they were activated to a myofibroblastic phenotype after 7 to 10 days. Human and rat hepatic stellate cells were used for experiments after activation in primary culture or before fourth passage. Cells were cultured in Dulbecco's modified Eagle's medium in the presence of 16% fetal calf serum and antibiotics.
Apoptosis of hepatic stellate cells was induced by absolute serum deprivation, cycloheximide treatment (Issa et al., Gut (2001) 48: S48-S57), or exposure to nerve growth factor as previously described (Trim et al., Am. J. Pathol., (2000) 156, 1235-1243). Hepatic stellate cells were cultured in 24-well tissue culture plates. Rat and human hepatic stellate cells were exposed to proapoptotic stimuli with and without recombinant TIMP-1 (Biogenesis, Poole, UK) and other manipulations as detailed below. Following a 4 hour incubation at 37° C., nuclear morphology was assessed by adding acridine orange to each well (final concentration 1 μg/ml) and observing the cells under blue fluorescence. The total number of apoptotic bodies was counted, and any apoptotic bodies floating in the supernatant were included by racking up the objective lens. The total number of cells per field was counted, and an apoptotic index was calculated. Each condition was performed in duplicate, and three high power fields were counted for each well. […] To examine for autocrine effects, hepatic stellate cells were incubated for 18 hours with azide-free polyclonal neutralizing antibodies to TIMP-1 and a nonimmune IgG control (Santa Cruz Biotechnology, Inc., Santa Cruz, Calif.), and responses were assessed by acridine orange staining and counting.
Apoptosis was assessed by acridine orange staining. […] A normal cell lies adjacent to the apoptotic body. This technique was used to determine the percentage of apoptotic hepatic stellate cells following exposure to cyclohexamide in the presence or absence of TIMP-1. Hepatic stellate cells were exposed to 50 μM cyclohexamide and 0, 1, 10, 100 or 200 ng/ml of TIMP-1. Cells treated with serum alone were used as controls. […] Bovine serum albumin, used as a carrier for the TIMP-1 had no antiapoptotic effect.

[2] = molecular target: T1, recombinant human caspase-3 (Homo sapiens, UniProt P42574); experiment: Direct effect on recombinant caspase-3; format: biochemical; conditions: TIMP-1 285-2850 ng/ml, 1 hour preincubation
T1 construct: purchased Calbiochem
T1 sequence (P42574 29-175 limits assumed): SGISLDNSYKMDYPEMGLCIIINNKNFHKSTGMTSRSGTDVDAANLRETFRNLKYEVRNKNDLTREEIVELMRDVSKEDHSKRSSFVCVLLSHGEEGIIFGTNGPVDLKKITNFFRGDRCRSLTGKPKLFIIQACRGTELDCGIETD
T1 sequence (P42574 176-277 limits assumed): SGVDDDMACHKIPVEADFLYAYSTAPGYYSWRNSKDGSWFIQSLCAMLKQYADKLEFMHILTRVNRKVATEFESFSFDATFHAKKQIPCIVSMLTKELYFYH
Experimental: (§1) Apoptosis was quantified by a colorimetric assay for caspase-3 activity (Promega) according to the manufacturer's instructions.
To exclude a direct effect of TIMP-1 on caspase-3 activity, recombinant human caspase-3 (Calbiochem) was incubated with TIMP-1 in varying concentrations (285-2850 ng/ml) for 1 hour before caspase-3 substrate was added to the reaction.

[3] = tested on: caspase-3 activity in hepatic stellate cells; experiment: Caspase-3 activity in cycloheximide-treated hepatic stellate cells; format: cell-based; conditions: 50 μM cycloheximide
Experimental: as §1
Caspase-3 is a central caspase in the proapoptotic cascade (Hengartner, Nature (2000) 407, 770-776) and can be used as an alternative assay to assess apoptosis. Hepatic stellate cells were cultured in 50 μM cycloheximide with TIMP-1 at a concentration of 0, 1, 10, or 100 ng/ml. Controls where cells were incubated with either the caspase 3 inhibitor benzyloxycarbonyl-Val-Ala-Asp-fluoromethylketone or serum alone were also performed. Data are expressed as mean ±S.E. and are presented as percentage of control given the arbitrary value of 100%. * indicates p<0.001; n=3. […] Although the mean caspase-3 activity of the cells treated with 10 ng/ml TIMP-1 was slightly lower than that treated with 100 ng/ml of TIMP-1, this was not statistically significant (p=0.67 by Student's t test).

[4] = tested on: mitochondrial permeability transition in rat hepatic stellate cells; experiment: Confocal microscopy of calcein/TMRM (mitochondrial permeability transition); format: cell-based; conditions: 1.5 μmol/L gliotoxin
Experimental: Intracellular calcium concentrations were examined by preloading activated hepatic stellate cells seeded onto 35-mm diameter dishes with 2.5 μmol/L Fluo-3AM for two hours. Mitochondrial integrity was determined by coloading cells with […] TMRM and 1 μmol/M calcein-AM for three hours. After loading, the culture medium was removed and the cells were washed extensively with confocal buffer (145 mmol/L NaCl, 5 mml/L KCl, 1 mmol/L MgSO4, 1 mmol/L NaH2PO4, 10 mmol/L HEPES, 25 mmol/L glucose, 1 mmol/L CaCl2 and 2 mg/mL bovine serum albumin, pH 7.4) and incubated at 37° C. in 2 mL confocal buffer containing 1.5 μmol/L gliotoxin or DMSO vehicle control.
Fluorescence images were collected at 1 μm intervals using an Olympus BX50WI microscope fitted with the Biorad microradiance confocal scanning system.
Fluo-3 and calcein fluorescence were excited at 488 nm and collected at 515-530 nm using a band width filter. TMRM was excited at 543 nm and collected at wavelengths greater than 570 nm.
Culture activated rat hepatic cells (14 day) were loaded with calcein (green fluorescence) and TMRM (red fluorescence) and then treated with either 0.05% (vol/vol) DMSO vehicle or alternatively 1.5 μmol/L gliotoxin. Green fluorescence and red fluorescence were imaged at regular time points as outlined in Materials and Methods and the results obtained were typical for at least three separate experiments.

Compound	apoptosis induced by cycloheximide (acridine orange) ([1]; 50 μM cycloheximide, 4 hours, TIMP-1 1-200 ng/ml)	apoptosis in serum-free conditions (acridine orange) ([1]; 24 hour incubation in serum-free conditions)	reduction in apoptotic morphology by acridine orange staining and counting ([1]; TIMP-1 10 ng/ml, cycloheximide)	reduction in apoptosis by acridine orange staining and counting ([1]; TIMP-1 100 ng/ml, cycloheximide)	apoptosis induced by cycloheximide (acridine orange) ([1]; rat HSC, protein at 142.5 ng/ml)	direct effect on caspase-3 activity [2]	reduction in caspase-3 activity ([3]; TIMP-1 10 ng/ml)	reduction in apoptosis measured by caspase-3 activity ([3]; TIMP-1 100 ng/ml)	caspase-3 activity ([3]; TIMP-1 1-100 ng/ml)	TMRM fluorescence (mitochondrial permeability) [4]
TIMP-1: recombinant tissue inhibitor of matrix metalloproteases 1 (Biogenesis)	significantly reduces apoptosis of activated hepatic stellate cells induced by cycloheximide exposure in a dose-dependent manner	identical effect	30%	50%	inhibited apoptosis induced by cycloheximide exposure	did not reduce caspase-3 activity directly	50%	50%	dose-dependent reduction in caspase-3 activity	
CN1C(=O)[C@]23CC4=CC=C[C@H](O)[C@H]4N2C(=O)[C@@]1(CO)SS3 [gliotoxin]										loss of TMRM fluorescence at four hours
